# Assay results reported in publication PMC6371959 (Antiviral Research, 2018).
# pEC50: −log10 of the molar value. Where two headings read alike, the source gives them in different places.
# Experiments:
# [1] = tested on: T7FFLuc control (T7 RNA polymerase driven firefly luciferase); experiment: cells; assay type: cell-based; conditions: BSR-T7, read-out: EC50 (T7FFLuc control)
# EBOV minigenome (WT NP) [2] = experiment: in vitro; conditions: hamster
# in vitro [3] = conditions: hamster, CC50 (reduction in cell viability, MTT)
# EBOV minigenome (WT NP) [4] = experiment: microbe, parasite or virus in culture; conditions: Zaire ebolavirus; for pEC50: BSR-T7, read-out: EC50 (reduction in luciferase, EBOV minigenome)
# EBOV minigenome (WT NP) [5] = experiment: microbe, parasite or virus in culture; assay type: cell-based, Ebola virus (EBOV), Makona strain; conditions: Zaire ebolavirus, read-out: EC50 (reduction in luciferase, EBOV minigenome)
# [6] = tested on: Bunyamwera virus (BUNV) minigenome; experiment: microbe, parasite or virus in culture; assay type: cell-based; conditions: BSR-T7, read-out: EC50 (BUNV minigenome control)
# [7] = tested on: T7FFLuc control (T7 RNA polymerase driven firefly luciferase); experiment: cells; assay type: cell-based; conditions: read-out: EC50 (T7FFLuc control)
# Huh7-Lunet-T7 cells = conditions: human
# in vitro [8] = conditions: human, CC50 (reduction in cell viability, MTT)
# influenza NP = conditions: cited from earlier work
compound,measurement,setting,value
O=C(c1cccc(/C=C2\SC(=O)N(Cc3cccc(F)c3)C2=O)c1)N1CCN(c2ccccn2)CC1 [MCCB4-8],pEC50,[1],< 4.00
same,selectivity ratio,EBOV minigenome (WT NP) [2],4
same,CC50,in vitro [3],46.5 µM
same,pEC50,EBOV minigenome (WT NP) [4],4.95
O=C(c1cccc(/C=C2\SC(=O)N(Cc3ccc(F)cc3)C2=O)c1)N1CCN(c2ccccn2)CC1 [MCCB4-12],pEC50,[1],4.31
same,selectivity ratio,EBOV minigenome (WT NP) [2],6.5
same,CC50,in vitro [3],64.8 µM
same,pEC50,EBOV minigenome (WT NP) [4],5.06
O=C(c1cccc(/C=C2\SC(=O)N(Cc3ccccc3)C2=O)c1)N1CCN(c2ccccn2)CC1 [MCCB4],pEC50,EBOV minigenome (WT NP) [5],5.82
same,pEC50,[6],< 4.00
same,pEC50,[1],< 4.00
same,pEC50,[7],4.51
same,CC50,Huh7-Lunet-T7 cells,43.2 µM
same,CC50,in vitro [3],> 100 µM
same,CC50,in vitro [8],48.8 µM
same,pEC50,EBOV minigenome (WT NP) [4],5.32
same,EC90,"EBOV minigenome (WT NP) [4]; BSR-T7, read-out: EC90 (EBOV minigenome)",49 µM
same,inhibition at 4.8 µM,"EBOV minigenome (WT NP) [4]; BSR-T7, read-out: inhibition of luciferase (time course)",50%
Cc1onc(-c2ccccc2)c1C(=O)N1CCN(c2ccc([N+](=O)[O-])cc2Cl)CC1 [Nucleozin],"EC50 (influenza, NP aggregation)",influenza NP,nM range
